Test [1] has as its target T1, KRAS Wild Type (Homo sapiens (Human), UniProt P01116). Nature of the test: SPR binding affinity and kinetics, GDP-loaded KRAS Wild Type. Conditions: GDP loaded protein, geomean. The source says:
(§1) No additional regeneration was used.
(§2) Compound dissociation was monitored for at least 3600 seconds. […] No additional regeneration was used.
(§3) The adequateness of the fit was judged by c2 values and the randomness of residue distribution.

The test system of test [2] is SW620 (colorectal cancer cell line). The experiment in a line: KRAS Cell Titer Glo (CTG) cell proliferation assay, SW620. Conditions: Homo sapiens, SW-620, 168 h; SW620 cells, 7-day CTG, geomean IC50. The format is cell-based. The method in brief:
(§4)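 Compounds pre-dispensed in 0.1% DMSO before seeding H358 (300 cells/well), SW620 (750) or PANC08.13 (600); 7-day exposure at 37 °C, 5% CO2. Viability by CellTiter-Glo luminescence after 15 min at room temperature. Percent effect normalised to DMSO (0%) and 1 uM trametinib (100%); geomean IC50.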
(In ATP-based viability assays light output follows the ATP content of the culture.)

The target of test [3] is T2, KRAS G12D (Homo sapiens (Human), UniProt P01116, G12D). Nature of the test: SPR binding affinity and kinetics, GDP-loaded KRAS G12D. Conditions: GDP loaded protein, geomean.
T2 sequence (P01116 other isoform, or with tags, fused parts or gaps G12D): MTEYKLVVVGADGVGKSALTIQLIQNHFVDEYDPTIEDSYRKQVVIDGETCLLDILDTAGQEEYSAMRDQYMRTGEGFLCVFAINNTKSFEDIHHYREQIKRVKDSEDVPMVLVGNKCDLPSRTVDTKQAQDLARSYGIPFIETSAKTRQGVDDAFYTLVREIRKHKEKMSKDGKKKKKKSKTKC
From the text: as §1, §2, §3
Background: SPR reads the build-up and loss of mass on a sensor chip optically.

For another test, the target named is NRAS Wild Type (Homo sapiens (Human), UniProt P01111). Nature of the test: SPR binding affinity and kinetics, GTPγS-loaded NRAS Wild Type. Conditions: GTPγS loaded protein, geomean. The method, boiled down:
(§5)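 Kinetic and affinity values come from fitted SPR sensorgrams, the fit accepted on c2 values and randomly distributed residues. Dissociation was followed for at least 3600 seconds without any additional regeneration.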

Test [4] addresses T2, KRAS G12D. The experiment in a line: SPR binding affinity and kinetics, GTPγS-loaded KRAS G12D. Conditions: GTPγS loaded protein, geomean. The method, boiled down:
as §5

The target of test [5] is T3, KRAS G12V (Homo sapiens (Human), UniProt P01116, G12V). Nature of the test: SPR binding affinity and kinetics, GDP-loaded KRAS G12V. Conditions: GDP loaded protein, geomean.
T3 sequence (P01116 other isoform, or with tags, fused parts or gaps G12V): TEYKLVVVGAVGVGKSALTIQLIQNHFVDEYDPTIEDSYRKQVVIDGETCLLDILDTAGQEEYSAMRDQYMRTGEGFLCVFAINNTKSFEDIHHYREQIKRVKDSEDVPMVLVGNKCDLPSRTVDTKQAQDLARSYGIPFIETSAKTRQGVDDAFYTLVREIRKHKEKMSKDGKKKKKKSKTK
From the text: as §1, §2, §3

In test [6] the target is T4, KRAS G12C (Homo sapiens (Human), UniProt P01116, G12C). The experiment in a line: SPR binding affinity and kinetics, GTPγS-loaded KRAS G12C. Conditions: GTPγS loaded protein, geomean. The method in brief:
as §5

Test [7] relates to PANC08.13 (pancreatic cancer cell line). The experiment in a line: KRAS Cell Titer Glo (CTG) cell proliferation assay, PANC08.13. The format is cell-based. Conditions: Homo sapiens, PANC-08-13, 168 h; PANC08.13 cells, 7-day CTG, geomean IC50. The method, boiled down: as §4
Test [8] has as its target T4, KRAS G12C. The experiment in a line: SPR binding affinity and kinetics, GDP-loaded KRAS G12C. Conditions: GDP loaded protein, geomean.
From the text: as §1, §2, §3

Another test has as its target HRAS Wild Type (Homo sapiens (Human), UniProt P01112). Nature of the test: SPR binding affinity and kinetics, GTPγS-loaded HRAS Wild Type. Conditions: GTPγS loaded protein, geomean. The method in brief: as §5
Test [9] deals with H358 (non-small cell lung cancer cell line). Nature of the test: KRAS Cell Titer Glo (CTG) cell proliferation assay, H358. Conditions: Homo sapiens, NCI-H358, 168 h; H358 cells, 7-day CTG, geomean IC50. It counts as cell-based. The method, boiled down:
as §4

The target of test [10] is T3, KRAS G12V. The experiment in a line: SPR binding affinity and kinetics, GTPγS-loaded KRAS G12V. Conditions: GTPγS loaded protein, geomean. The method, boiled down:
as §5

In test [11] the target is T1, KRAS Wild Type. Nature of the test: SPR binding affinity and kinetics, GTPγS-loaded KRAS Wild Type. Conditions: GTPγS loaded protein, geomean. The method, boiled down: as §5

Where only a bound is given, the exact number is not on record here.

T1 sequence (P01116 other isoform, or with tags, fused parts or gaps): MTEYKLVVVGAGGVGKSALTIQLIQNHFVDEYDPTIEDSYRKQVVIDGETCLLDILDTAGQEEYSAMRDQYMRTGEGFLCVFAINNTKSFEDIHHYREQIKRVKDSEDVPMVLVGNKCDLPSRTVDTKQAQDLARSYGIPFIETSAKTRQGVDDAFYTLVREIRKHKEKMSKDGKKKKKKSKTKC
T4 sequence (P01116 other isoform, or with tags, fused parts or gaps G12C): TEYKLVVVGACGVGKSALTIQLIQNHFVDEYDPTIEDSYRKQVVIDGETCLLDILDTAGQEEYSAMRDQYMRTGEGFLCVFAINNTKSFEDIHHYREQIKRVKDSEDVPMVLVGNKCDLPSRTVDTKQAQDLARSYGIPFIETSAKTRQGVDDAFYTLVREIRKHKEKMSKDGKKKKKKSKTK
Chain of NRAS Wild Type (P01111 2-185): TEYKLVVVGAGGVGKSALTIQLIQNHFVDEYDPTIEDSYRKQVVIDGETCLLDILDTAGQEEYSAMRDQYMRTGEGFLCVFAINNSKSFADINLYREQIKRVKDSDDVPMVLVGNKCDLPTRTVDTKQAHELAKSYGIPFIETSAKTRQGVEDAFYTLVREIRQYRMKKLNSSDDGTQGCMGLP
Chain of HRAS Wild Type (P01112 2-184): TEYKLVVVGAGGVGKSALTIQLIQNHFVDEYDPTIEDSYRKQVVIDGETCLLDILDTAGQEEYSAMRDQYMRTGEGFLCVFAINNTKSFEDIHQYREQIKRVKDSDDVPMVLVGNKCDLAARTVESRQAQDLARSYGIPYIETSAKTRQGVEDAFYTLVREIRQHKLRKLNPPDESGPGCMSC

Take `Fc1c(-c2c(C3CC3)c(Cl)cc3[nH]ncc23)nc2c3c(nc(OC[C@@]45CCCN4C[C@H](F)C5)nc13)N1CCCOC[C@H]1CO2` [Example 1, (8aS)-5-(6-chloro-5-cyclopropyl-1H-indazol-4-yl)-4-fluoro-2-{[(2R,7aS)-2-fluorotetrahydro-1H-pyrrolizin-7a(5H)-yl]methoxy}-8a,9,12,13-tetrahydro-8H,11H-7,10-dioxa-1,3,6,13a-tetraazanaphtho[1,8-ab]heptalene]: the Kd was 0.038 nM at KRAS Wild Type [1]; 0.048 nM on KRAS G12D [3]; over 10000 nM on NRAS Wild Type; 10 nM on KRAS G12D [4]; 0.105 nM at KRAS G12V [5]; 12 nM on KRAS G12C [6]. Besides, the Kd was 0.031 nM on KRAS G12C [8], over 10000 nM at HRAS Wild Type, 8 nM at KRAS G12V [10] and 14 nM at KRAS Wild Type [11]. Besides, the IC50 in [2] came to 83 nM; in test [7], 7 nM; in [9], 73 nM.
`C=C1CN2CCC[C@@]2(COc2nc3c4c(nc(-c5c(C6CC6)c(Cl)cc6[nH]ncc56)c(F)c4n2)OC[C@@H]2COCCCN32)C1` [Example 2, (8aS)-5-(6-chloro-5-cyclopropyl-1H-indazol-4-yl)-4-fluoro-2-{[(7aS)-2-methylidenetetrahydro-1H-pyrrolizin-7a(5H)-yl]methoxy}-8a,9,12,13-tetrahydro-8H,11H-7,10-dioxa-1,3,6,13a-tetraazanaphtho[1,8-ab]heptalene]: the Kd at KRAS Wild Type [1] is 0.004 nM; on KRAS G12D [3], 0.041 nM; on NRAS Wild Type, over 10000 nM; on KRAS G12D [4], 1 nM; on KRAS G12V [5], 0.144 nM; at KRAS G12C [6] it was 5 nM. Further, the Kd at KRAS G12C [8] was 0.019 nM; at HRAS Wild Type, over 10000 nM; on KRAS G12V [10], 4 nM; at KRAS Wild Type [11], 5 nM. The results for the concentration for half-maximal inhibition (IC50) in test [2], in [7] and in [9] were 14 nM, under 2 nM and 10 nM, respectively.

The Kd is the concentration at which binding is half-saturated. A high value points to weaker binding. In general, IC50 refers to the midpoint of a concentration-inhibition curve. Low values mean greater potency in that assay, high ones weaker potency in that assay.

Source of the values: US20250034173A1, “PYRIDO[4,3-D]PYRIMIDINE COMPOUNDS” (PFIZER INC., priority 2023, published 2025).
